Assay results reported in US20140154735A1, “TUMOUR CELL AND TISSUE CULTURE” (CAPSANT NEUROTECHNOLOGIES LTD., priority 2011, published 2014).
Values belong to the compound of their own block, whether it stands above or below them.

Assays:
LN18-eGFP clusters = experiment: 5-ALA staining of GBM(LN18-eGFP)/brain co-cultures; type: cell-based, human; conditions: 100 μg/ml, 24 hours
Source text: 5-aminolevulinic acid (5-ALA) can be used to visualize tumourous tissue during neurosurgical procedures. The intraoperative use of this guiding method may reduce the tumour residual volume and prolong progression-free survival in patients suffering from brain tumours. GBM(LN18-eGFP)/brain co-cultures as prepared in Example 4 were stained with 5-ALA to see whether, as in human tumours, 5-ALA could specifically stain the tumour cells.
Aminolevulinic acid hydrochloride (ALA) (Sigma product number A3785) was solubilised in water to 10 mg/ml. For incubation with the cultures, it was diluted in the medium in the well to give a final concentration of 100 μg/ml and incubated with the cultures for 24 hours. The cultures were then examined microscopically using the CARV confocal system described for immunohistological analysis.

LN-18 cells [1] = experiment: 2D monolayer culture of LN-18-GFP tumour cells alone, fluorescence growth readout; type: cell-based, human; conditions: for IC50: Homo sapiens, LN-18, 2D culture, growth inhibition
Procedure: (§1) Human glioblastoma tumour cell lines, LN-18 (ATCC #CRL2610) were cultured and were transfected with either green fluorescent protein (GFP) expressing plasmids or red fluorescent protein (RFP) expressing plasmids. Cells were cultured and plated onto 6 well plates, at 1×10^5 cells per well, grown overnight and checked to see ˜75% confluence. The cells were transfected with pEGFP-N3 (BD Biosciences cat no #6080-1) using Gene Juice (Novagen cat no #70967-EA) as per manufacturer's protocols. 24 hours after transfection, the cells were selected with Geneticin (GIBCO cat no #10131-019), a population of selected cells were used in the experiments. A population of selected cells were cultured over prolonged periods of time with occasional selection to maintain a population of transfected cells. The expression of fluorescent proteins by the tumour cells allows monitoring of the tumour cells for proliferation and morphological changes. The transfected tumour cells (LN-18) were treated with trypsin/EDTA (sigma#T4299) to remove them from the flask, resuspended in culture media, The viable cells were counted using trypan blue exclusion The suspension was centrifuged at 1000 rpm/3 minutes and the resultant cell pellet resuspended to 50,000 cells/μl.
(§2) For the monolayer cultures of tumour cells alone (2D) LN-18_GFP cells were plated into 24 well plates at a concentration of 10^4 cells per well and after 2 hours treated with the same concentrations of TMZ as the organotypic co-cultures. Control organotypic co-cultures and 2D cultures were also monitored to compare normal growth of the tumour cells with that after addition of the TMZ. For analysis of fluorescence, images were taken on a Leica DM1L microscope using Leica application suite software. The images collected were analyzed using the BD IPLAB imaging software and the data analysed using Graphpad Prism5 software. The error bars are the standard error of the mean (SEM). 24 images were used for each data point.

LN-18 cells [2] = experiment: 3D organotypic co-culture of LN-18-GFP tumour cells in rat brain cell matrix, treated at seeding; type: cell-based, human
Procedure: as §1
The organotypic cultures were produced by preparing dissociated cells from isolated rat cortex. P0 Wistar rats were sacrificed and the brains removed. The cortices were dissected into a Petri dish and chopped into small pieces and put into cold EBSS (GIBCO cat no #24010). The tissue pieces were then triturated very gently. The resultant cell suspension was filtered through a 100 μm mesh filter fitting into a 50 ml falcon tube. The suspension was centrifuged at 1000 rpm/3 minutes. The viable cells were counted using Trypan blue exclusion and the cell pellet resuspended to 50,000 cells/μl.
The transfected tumour cells and the rat primary cells prepared as explained in Examples 1 and 2 were mixed together to form a suspension of cells at 50,000 cells/μl.
5 μL of this mixed cell suspension was added to the top of a 0.4 micron Millipore culture insert (Millipore cat no # PICM0350) placed in lml cortical media (10% Hams F12, 20% FCS, 5% horse serum, 10 mM Hepes, 2 mM glutamine in DMEM) in a 6 well plate (NUNC). The plate was then incubated at 37° C. with 5% CO2 (FIG. 1A). During the first hours of this incubation the cells compact to form a denser culture by the removal of the liquid from the 5 μl cell suspension through capillary action via the semi-permeable membrane support (FIG. 1A).
Using these optimisation experiments the cells were mixed in the proportions of 95% rat brain cells and 5% LN-18 tumour cells both resuspended at 50,000 cells per μl.
(§3) Organotypic co-cultures were prepared as previously described. 2 hours after preparation, TMZ was added into the culture medium at various concentrations—see FIG. 6. The cultures are incubated in the culture medium+TMZ for up to 14 days with the compound being renewed as the media was changed. This allowed for monitoring of the effect of the TMZ over time.
as §2

GL-15 [3] = experiment: 2D culture of GL-15 glioblastoma cells, growth inhibition; type: cell-based; conditions: GL-15, 2D culture
Procedure: as §2
(§4) Similarly to what has been observed with LN-18 cells, efficacy of Temozolomide was increased from 2.5 to 12 fold in brain-co-cultures. Thus, the co-cultures of the invention reflect the clinical situation more closely than 2D cultures for various glioblastoma cell lines.

GL-15 [4] = experiment: 3D co-culture of GL-15 glioblastoma cells with brain cell matrix, growth inhibition; type: cell-based; conditions: GL-15, 3D co-culture with brain cell matrix
Procedure: (§5) Each of these cell lines was eGFP-labeled and mixed with rat brain cells to form 3D organotypic co-cultures. As indicated by the eGFP signal, all brain-derived tumour cell lines grew and formed clusters of tumour cells within the co-cultures (FIGS. 3B, C and D) in a very similar way as LN18 cells.
as §3, §4

A172 [5] = experiment: 2D culture of A172 glioblastoma cells, growth inhibition; type: cell-based; conditions: Homo sapiens, A172, 2D culture
Procedure: as §2, §4

A172 [6] = experiment: 3D co-culture of A172 glioblastoma cells with brain cell matrix, growth inhibition; type: cell-based; conditions: Homo sapiens, A172, 3D co-culture with brain cell matrix
Procedure: as §5, §3, §4

U87 [7] = experiment: 2D culture of U87 glioblastoma cells, growth inhibition; type: cell-based; conditions: Homo sapiens, U-87 MG; U87, 2D culture; read-out: IC50 TMZ 2D
U87 [8] = experiment: 3D co-culture of U87 glioblastoma cells with brain cell matrix, growth inhibition; type: cell-based; conditions: Homo sapiens, U-87 MG, U87, 3D co-culture with brain cell matrix
Procedure: as §5, §3, §4

[9] = system: established glioblastoma tumour cell clusters in GBM/brain co-cultures; experiment: Tumour regression in established GBM/brain co-cultures, treatment started three days after seeding; type: cell-based
Source text: Chemotherapies are given to patients with established tumours and are poorly effective.
Thus, also in terms of tumour regression, the properties of the co-cultures of the invention are representative of the clinical situation.

Structure (SMILES): NCC(=O)CCC(=O)O [5-ALA, 5-aminolevulinic acid]
staining of tumour cell clusters (LN18-eGFP clusters; clusters of more than about 100 μm in diameter): strong specific 5-ALA staining
staining of tumour cell clusters (LN18-eGFP clusters; clusters smaller than about 100 μm in diameter): stained more weakly

Structure (SMILES): Nc1ccn([C@@H]2O[C@H](CO)[C@@H](O)[C@@H]2O)c(=O)n1 [Ara-C, Cytosine arabinoside]
concentration showing growth inhibition (anti-proliferative activity) (LN-18 cells [1]; 2D cultures): 100 nM
dose needed in 3D co-cultures relative to dose necessary in 2D cultures (LN-18 cells [2]; 3D versus 2D): ten times
concentration required to reduce tumour cell proliferation (LN-18 cells [2]; GBM/Brain co-cultures (3D)): 1 µM
effect on GBM cells (LN-18 cells [2]; GBM/Brain co-cultures (3D), 10 μM): effectively killed

IC50 (LN-18 cells [1]; read-out: IC50 TMZ 2D): > 10 µM
IC50 (GL-15 [3]; read-out: IC50 TMZ 2D): > 50 µM
IC50 (GL-15 [4]; read-out: IC50 TMZ 3D): ~20 µM
IC50 (A172 [5]; A 172, read-out: IC50 TMZ 2D): ~25 µM
IC50 (A172 [6]; A 172, read-out: IC50 TMZ 3D): ~5 µM
IC50 (U87 [7]): ~12 µM
IC50 (U87 [8]; read-out: IC50 TMZ 3D): ~1 µM
Structure (SMILES): Cn1nnc2c(C(N)=O)ncn2c1=O [TMZ, Temozolomide]
IC50 (LN-18 cells [2]; Homo sapiens, LN-18, LN-18, 3D co-culture with rat brain cells, growth inhibition, read-out: IC50 TMZ 3D): < 5 µM
IC50 (LN-18 cells [2]; LN-18, 3D co-culture with rat brain cells, growth inhibition, read-out: IC50 TMZ 3D): ~4 µM

IC50 (LN-18 cells [1]; read-out: IC50 Taxol 2D): ~0.007 µM
IC50 (GL-15 [3]; read-out: IC50 Taxol 2D): ~0.004 µM
IC50 (GL-15 [4]; read-out: IC50 Taxol 3D): 0.1 µM
IC50 (A172 [5]; A 172, read-out: IC50 Taxol 2D): ~0.007 µM
IC50 (A172 [6]; A 172, read-out: IC50 Taxol 3D): ~0.05 µM
IC50 (U87 [8]; read-out: IC50 Taxol 3D): ~0.06 µM
Structure (SMILES): CC(=O)O[C@H]1C(=O)[C@@]2(C)[C@H]([C@H](OC(=O)c3ccccc3)[C@]3(O)C[C@H](OC(=O)[C@H](O)[C@@H](NC(=O)c4ccccc4)c4ccccc4)C(C)=C1C3(C)C)[C@]1(OC(C)=O)CO[C@@H]1C[C@@H]2O [Taxol, Paclitaxel]
effect on tumour cell number (LN-18 cells [1]; 2D, Taxol 20 nM): reduction in cell number to almost zero
effect on tumour cell number (average % fluorescence) (LN-18 cells [1]; 2D, taxol 5 nM): small but significant reduction in cell number
effect on tumour cell number (average % fluorescence) (LN-18 cells [1]; 2D, taxol 20 and 50 nM): no increase in cell number
effect on tumour cell growth (LN-18 cells [2]; 3D, taxol 25 nM, treatment started at seeding): cell growth was stopped
effect on cell growth versus control cultures (average % fluorescence) (LN-18 cells [2]; 3D, taxol 25, 50 and 100 nM): significant reduction in cell growth
concentration required to achieve tumour clusters shrinkage (LN-18 cells [2]; 3D, treatment started at seeding): 100 nM
IC50 (LN-18 cells [2]; Homo sapiens, LN-18, read-out: IC50 Taxol 3D, LN-18, 3D co-culture with rat brain cells, growth inhibition): ~0.025 µM
effect on fluorescence intensity of established tumour cell clusters ([9]; taxol 25 nM): no effect
effect on fluorescence intensity of established tumour cell clusters ([9]; taxol 100 nM and 50 nM): marginal effects
